Laboratory results published in patent US20050153361A1, “Therapeutic and diagnostic applications of protein disulphide isomerases” (priority 2003, published 2005).
Entries after “also recorded” stand apart in the source; their conditions may differ.

How the values were obtained:
[1] = system: adrenomedullin secretion by HDMEC; experiment: Adrenomedullin secretion by HDMEC measured by radioimmunoassay after siRNA treatment; assay type: cell-based, human; settings: under hypoxia
Procedure: (§1) Transfection of microvascular endothelial cells with siRNA: EndoPDI specific (5′-[…]-3′) and PDI specific (5′-[…]-3′) siRNA oligos were synthesized using the SilencerTM siRNA Construction kit (Ambion, Huntingdon, UK) following manufacturer's instructions. HDMEC (5×10^5 cells) were plated onto 0.2% gelatin coated 10 cm petri dishes and incubated for 24 h. Cells were then transfected with 10 nM EndoPDI and/or PDI siRNA using oligofectamine reagent (Invitrogen) according to the manufacturer's instructions. The cells were then incubated for 24 h prior to hypoxia for 16 h (0.1% O2, 5% CO2 and 94.9% N2) or continuation of normoxic exposure for 16 h before performing FACS analysis as described.
Measurement of adrenomedullin by Radioimmunoassay: The secretion of adrenomedullin by endothelial cells was measured using an adrenomedullin radioimmunoassay (Peninsula Laboratories Europe, Ltd, Merseyside, England) following manufacturer's instructions. Briefly, 50,000 cells were treated with RNAi oligos as before, the medium collected and used in the radioimmunoassay.

[2] = system: human dermal microvascular endothelial cells (HDMEC); experiment: FACS analysis of apoptosis (Annexin V-FITC / propidium iodide) after siRNA transfection; assay type: cell-based; settings: for cell population being apoptotic: 10 nM siRNA
Procedure: as §1
FACS Analysis: To distinguish apoptotic from necrotic cells, double staining for exposed phosphatidylserine and propidium iodide (PI) exclusion was performed as follows: Cells were harvested, washed twice with PBS and resuspended in binding buffer (10 mM HEPES/NaOH, pH 7.4, 140 mM NaCl, 2.5 mM CaC12). Five μl Annexin V-FITC antibody (Pharmingen, San Diego, USA) and 10 μl PI (50 μg/ml) were added to the cells. After incubation for 15 min in the dark at room temperature, the cells were analysed by a FACScan. Controls of unstained cells, cells stained with Annexin V-FITC only and cells stained with PI only were used to set up compensation and quadrants.

[3] = system: endothelin-1 secretion by HDMEC; experiment: Endothelin-1 secretion by HDMEC measured by ELISA after siRNA treatment; assay type: cell-based, human; settings: under hypoxia
Procedure: as §1
Measurement of endothelin-1 secretion by ELISA: The secretion of endothelin-1 by endothelial cells was measured using a human endothelin-1 ELISA (R&D Systems, Abindgdon, UK) following manufacturer's instructions. Briefly, 50,000 cells were treated with RNAi oligos as before, the medium collected and diluted 1/25 for use in the ELISA.

[4] = system: CD105 cell surface expression on HDMEC; experiment: CD105 cell surface expression on HDMEC by FACS after siRNA treatment; assay type: cell-based, human; settings: under hypoxia
Procedure: as §1
The cell surface expression of CD105 was quantified by incubating 10^5 cells per tube with 50 μl (10 μl/ml in PBS) of monoclonal antibody to CD105 on ice for 1 h and washed twice with cold PBS. After incubation with FITC-labelled rabbit anti-mouse F(ab)2 (1/40 DAKO) for 30 min on ice, the cells were washed and resuspended in 0.3 ml of 2% buffered formalin and analyzed on a FACScan.

EndoPDI protein = experiment: Western blotting of EndoPDI protein after siRNA transfection; assay type: cell-based, human; settings: HDMEC, 10 nM siRNA
From the text: Production of polyclonal antibodies to EndoPDI and Western blotting; The peptide of sequence ADGEDGQDPHSKC was synthesized by the Protein and Peptide Chemistry Department of Cancer Research UK, using standard techniques. This sequence corresponds to amino acids 52 to 63 of the human EndoPDI protein sequence with an additional cysteine residue added to the C-terminus to enable coupling to a carrier protein. The peptide was coupled to Imject® Maleimide Activated mcKLH (Pierce, Rockford, USA) following the manufacturer's instructions and diluted with Freunds adjuvant before injection into rabbits. A standard immunisation protocol was followed with 200 μg immunogen used for the first injection and 100 μg immunogen for subsequent boosts. The test bleeds were screened against pre-bleeds by ELISA to identify the presence of antibodies to EndoPDI in the rabbit serum.
as §1

EndoPDI mRNA = experiment: RNase protection analysis of EndoPDI mRNA after siRNA transfection; assay type: cell-based, human; settings: HDMEC, 10 nM siRNA
Procedure: RNase Protection Assay. Total RNA was extracted from cells in culture using TRI reagent (Sigma, Poole, Dorset, UK). RNase protection assays were performed in duplicate on 10-30 μg of total RNA as described (16). […] The protected fragment size for EndoPDI was 300 nucleotides. In each assay, a positive and negative (tRNA only) control and undigested riboprobes were analysed. Intensity of signal, quantified on a PhosphorImager (Molecular Dynamics, Chesham, Buckinghamshire, United Kingdom) was calculated as the ratio of the signal of interest to U6 mRNA to correct for variations in loading.
as §1

[5] = hypoxia 16 h (0.1% O2), listed as siRNA specific to EndoPDI
[6] = normoxia, listed as siRNA specific to EndoPDI

Substance | adrenomedullin secretion [1] | apoptotic population compared with controls ([2]; HDMEC, hypoxia (0.1% O2, 16 h)) | cell population being apoptotic ([2]; HDMEC, hypoxia (0.1% O2, 16 h)) [%] | apoptotic population compared with controls ([2]; HDMEC, normoxia) | cell population being apoptotic ([2]; HDMEC, normoxia) [%] | endothelin-1 secretion [3] | CD105 cell surface expression [4] | necrotic cell population ([2]; HDMEC, hypoxia) | HDMEC survival ([2]; normoxia) | share of the cell population with marked reduction in CD105 expression ([4]; two peaks apparent) [%] | EndoPDI protein expression (EndoPDI protein; [5]) | EndoPDI protein expression (EndoPDI protein; normoxia) | EndoPDI protein expression (EndoPDI protein; [6]) | EndoPDI mRNA expression (EndoPDI mRNA; [5]) | EndoPDI mRNA expression (EndoPDI mRNA; normoxia) | EndoPDI mRNA expression (EndoPDI mRNA; [6])
PDI specific siRNA: PDI specific siRNA oligo, 5′-GACCTCCCCTTCAAAGTTGTT-3′ (listed as DNA, chemistry not given here) [reference compound] | little effect | significant increase | 48 | significant increase | 55 | significant decrease | little effect |  |  |  |  |  |  |  |  | 
EndoPDI specific siRNA: EndoPDI specific siRNA oligo, 5′-GAAGCTGTGAAGTACCAGGTT-3′, synthesized with the Silencer siRNA Construction kit (listed as DNA, chemistry not given here) | significantly reduced | significant increase | 12 |  | 4.5 | even greater reduction | marked reduction | significant increase | no effect | 50 | loss of EndoPDI expression; also recorded: complete loss | completely blocked | complete loss | loss of EndoPDI expression; also recorded: complete loss | completely blocked | complete loss
